Tests used:
Hepatitis C virus [1] = assay: Antiviral activity against Hepatitis C virus genotype 1a infected in human Huh cells assessed as inhibition of viral replication by RT-PCR-based replicon assay; type: functional, cell-based, Hepacivirus hominis; conditions: subtype 1a
[2] = Lipophilicity, log D of the compound at pH 7.4; type: physicochemical; conditions: buffer
Hepatitis C virus [3] = assay: Antiviral activity against Hepatitis C virus genotype 1b infected in human Huh cells assessed as inhibition of viral replication by RT-PCR-based replicon assay; type: functional, cell-based, Hepacivirus hominis
[4] = Half life in human liver microsomes at 2 uM; type: ADME
[5] = target: 5-hydroxytryptamine receptor 2A (Homo sapiens, UniProt P28223); assay: Inhibition of serotonin 5-HT2A receptor (unknown origin)
[6] = Lipophilicity, log D of the compound; type: physicochemical; conditions: octanol/water
[7] = Half life in rat liver microsomes at 2 uM; type: ADME
[8] = Cmax in rat at 2 mg/kg, po each in 0.5% Methylcellulose and 0.3% Tween-80 and 1% N-methylpyrrolidone; type: ADME, organism-based; design: dose 2 mg/kg, route oral; conditions: in vivo
[9] = Permeability from apical to basolateral side of human Caco2 cells; type: ADME, cell-based; conditions: Caco-2, read-out: permeability
[10] = Plasma concentration in rat at 2 mg/kg, po each in 0.5% Methylcellulose and 0.3% Tween-80 and 1% N-methylpyrrolidone after 1 hr; type: ADME, organism-based; design: dose 2 mg/kg, route oral
[11] = Plasma concentration in rat at 2 mg/kg, po each in 0.5% Methylcellulose and 0.3% Tween-80 and 1% N-methylpyrrolidone after 2 hrs; type: ADME, organism-based; design: dose 2 mg/kg, route oral

Chain of 5-hydroxytryptamine receptor 2A (P28223 whole entry): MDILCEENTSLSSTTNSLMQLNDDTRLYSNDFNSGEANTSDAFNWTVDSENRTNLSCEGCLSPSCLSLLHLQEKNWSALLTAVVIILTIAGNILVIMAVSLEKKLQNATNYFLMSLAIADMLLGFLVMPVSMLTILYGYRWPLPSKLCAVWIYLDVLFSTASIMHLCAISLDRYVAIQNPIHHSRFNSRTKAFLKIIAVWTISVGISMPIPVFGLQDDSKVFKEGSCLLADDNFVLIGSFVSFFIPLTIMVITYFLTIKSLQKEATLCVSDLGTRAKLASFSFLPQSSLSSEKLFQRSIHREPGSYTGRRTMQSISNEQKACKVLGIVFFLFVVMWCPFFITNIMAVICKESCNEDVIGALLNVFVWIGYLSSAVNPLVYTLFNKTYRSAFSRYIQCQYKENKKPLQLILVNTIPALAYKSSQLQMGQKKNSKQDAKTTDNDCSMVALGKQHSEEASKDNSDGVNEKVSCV

| SMILES | EC50 (Hepatitis C virus [1]) | logD [2] | EC50 (Hepatitis C virus [3]) | half-life at 2 µM [4] | IC50 [5] | logD [6] | half-life at 2 µM [7] | Cmax [8] | Papp A→B [9] | concentration at 1 h [10] | concentration at 2 h [11] |
| --- | --- | --- | --- | --- | --- | --- | --- | --- | --- | --- | --- |
| COc1nc(NC(=O)C(C)(C)NC(=O)c2ccc3c(C4CCCC4)c(-c4ncc(Cl)cn4)n(C)c3c2)cnc1/C=C/C(=O)O | 270 nM | 2.6 | 17 nM | – | – | – | – | – | – | – | – |
| CCOc1nc(NC(=O)C2(NC(=O)c3ccc4c(C5CCCC5)c(-c5cncnc5)n(C)c4c3)CCC2)ccc1/C=C/C(=O)O | – | 3.4 | 15 nM | 1.02 h | – | – | – | – | 17 ×10⁻⁶ cm/s | – | – |
| COc1nc(NC(=O)C2(NC(=O)c3ccc4c(C5CCCC5)c(-c5ccccn5)n(C)c4c3)CCC2)ccc1/C=C/C(=O)O | – | 3.5 | 15 nM | 1.27 h | – | 3.5 | 0.167 h | – | – | – | – |
| COc1nc(NC(=O)C2(NC(=O)c3ccc4c(C5CCCC5)c(-c5cnccn5)n(C)c4c3)CCC2)ccc1/C=C/C(=O)O | 46 nM | 3.3 | 13 nM | – | – | – | – | – | – | – | – |
| CCOc1nc(NC(=O)C2(NC(=O)c3ccc4c(C5CCCC5)c(-c5ncc(Cl)cn5)n(C)c4c3)CCC2)ccc1/C=C/C(=O)O | 24 nM | > 5.9 | 13 nM | 1.1 h | – | – | – | – | 15 ×10⁻⁶ cm/s | – | – |
| CCOc1nc(NC(=O)C2(NC(=O)c3ccc4c(C5CCCC5)c(-c5ccc(Cl)cn5)n(C)c4c3)CCC2)ccc1/C=C/C(=O)O | 40 nM | – | 13 nM | 2.78 h | – | – | – | – | 15 ×10⁻⁶ cm/s | – | – |

Stronger by EC50 (Hepatitis C virus [3]), values ahead:

| EC50 (Hepatitis C virus [1]) | logD [2] | EC50 (Hepatitis C virus [3]) | half-life at 2 µM [4] | IC50 [5] | logD [6] | half-life at 2 µM [7] | Cmax [8] | Papp A→B [9] | concentration at 1 h [10] | concentration at 2 h [11] | SMILES |
| --- | --- | --- | --- | --- | --- | --- | --- | --- | --- | --- | --- |
| 21 nM | 3.3 | 12 nM | 2.3 h | 5200 nM | 3.3 | 1.82 h | 900 nM | – | – | – | CCOc1nc(NC(=O)C(C)(C)NC(=O)c2ccc3c(C4CCCC4)c(-c4ncc(Cl)cn4)n(C)c3c2)cnc1/C=C/C(=O)O |
| – | – | 12 nM | 1.57 h | – | – | 1.28 h | – | – | 300 nM | 100 nM | CCOc1nc(NC(=O)C(C)(C)NC(=O)c2ccc3c(c2)c(C)c(-c2ccc(F)cn2)n3C2CCCCC2)cnc1/C=C/C(=O)O |
| 62 nM | 3.7 | 9 nM | – | – | – | – | – | – | – | – | COc1nc(NC(=O)C2(NC(=O)c3ccc4c(C5CCCC5)c(-c5ncc(Cl)cn5)n(C)c4c3)CCC2)ccc1/C=C/C(=O)O |
| 8 nM | > 4.7 | 5 nM | – | – | – | – | – | – | – | – | CCOc1nc(NC(=O)C(C)(C)NC(=O)c2ccc3c(C4CCCC4)c(-c4ncc(Br)cn4)n(C)c3c2)ccc1/C=C/C(=O)O |
| 13 nM | 3.2 | 5 nM | 1.33 h | – | 3.2 | > 5 h | – | – | 400 nM | 100 nM | CCOc1nc(NC(=O)C2(NC(=O)c3ccc4c(C5CCCC5)c(-c5cnccn5)n(C)c4c3)CCCC2)cnc1/C=C/C(=O)O |
| 14 nM | > 6.2 | 3 nM | – | – | – | – | – | – | – | – | CCOc1nc(NC(=O)C2(NC(=O)c3ccc4c(C5CCCC5)c(-c5ncc(Cl)cn5)n(C)c4c3)CCCC2)ccc1/C=C/C(=O)O |

Reference: ChEMBL document CHEMBL3407472, “Multi-parameter optimization of aza-follow-ups to BI 207524, a thumb pocket 1 HCV NS5B polymerase inhibitor. Part 2: Impact of lipophilicity on promiscuity and in vivo toxicity” (Bioorg Med Chem Lett, 2015)
